One may read the IC50 as the concentration that inhibits the measured activity by half. A lower IC50 goes with greater potency.

Consider seven compounds from patent US5565433A, “Sulfated β-glycolipid derivatives as cell adhesion inhibitors” (Bristol-Myers Squibb Company, priority 1996, dated 1996).

Assay [1] has as its system P-selectin. Conditions: Skinner et al.; cited from earlier work.
Assay [2] has as its system P-selectin. The conditions noted are these: Larsen et al.; Erbe et al.; Aruffo et al.; cited from earlier work.
The target in assay [3] is T1, P-selectin (Homo sapiens, UniProt P16109).
T1 construct: consists of the human lectin domain, the EGF domain, and two complement repeats of the human selectins; made in house
T1 sequence (P16109 with tags, fused parts or gaps limits assumed): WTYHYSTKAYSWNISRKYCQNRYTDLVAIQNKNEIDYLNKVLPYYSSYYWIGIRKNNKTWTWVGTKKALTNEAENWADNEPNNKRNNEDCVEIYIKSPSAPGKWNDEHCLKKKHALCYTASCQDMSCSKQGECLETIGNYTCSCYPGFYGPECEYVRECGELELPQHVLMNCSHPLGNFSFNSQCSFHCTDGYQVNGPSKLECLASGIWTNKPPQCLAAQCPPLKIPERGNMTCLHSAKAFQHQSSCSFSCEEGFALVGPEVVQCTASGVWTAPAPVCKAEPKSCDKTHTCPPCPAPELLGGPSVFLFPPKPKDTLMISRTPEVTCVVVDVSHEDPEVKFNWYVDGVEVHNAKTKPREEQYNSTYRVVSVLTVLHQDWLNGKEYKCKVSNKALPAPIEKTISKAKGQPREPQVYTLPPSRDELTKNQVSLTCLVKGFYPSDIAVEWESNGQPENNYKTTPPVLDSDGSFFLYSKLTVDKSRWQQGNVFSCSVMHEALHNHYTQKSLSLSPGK
In words: P-Selectin Adhesion Receptor Binding: cell-free ELISA, inhibition of P-selectin binding to immobilized sulfatides. The conditions noted are these: immobilized sulfatide, pH 8.0. The text has this:
1. P-Selectin Adhesion Receptor Binding
P-selectin (GMP140, granule membrane protein-140, PADGEM, or CD62) is a calcium-dependent transmembrane protein found in alpha granules of endothelial cells and platelets. It is an inducible selectin produced on activated endothelium and platelets which recognize alpha(2-3)sialylated and alpha(1-3)fucosylated lactosaminoglycans which include the sequence, Lewis x (Zhou et al., J. Cell. Biol., (1991) 115 (2): 557-564) and sulfatides (3-sulfated galactosyl ceramides, Aruffo, et al., Cell (1991) 67: 35-44). P-selectin may be responsible for the initial adhesion events between endothelium and neutrophils as evidenced by leukocyte rolling induced by P-selectin in flow cells (Lawrence, M., and T. Springer, Cell (1991) 65: 859-873).
Based on the availability of soluble forms of P-selectin prepared as described by Aruffo, A., et al., Cell, 67, 35-44 (1991), a binding ELISA based assay modified from Foxall, et al., J., Cell Biol., 117, 895-902 (1992) was developed to measure inhibitors of P-selectin binding to immobilized sulfatides. Such inhibitors were tested in the assay described below.
0.1 ml of sulfatide (SIGMA) or lysosulfatide (SIGMA) each at 1 μg/ml in MeOH were added to the wells of a 96-well ELISA plate (ProBind, Falcon) and allowed to dry overnight at room temperature. The next day the antigen coated plates were blocked for 1.5 hours at room temperature with 5% BSA (ICN) in buffer containing 20mM Hepes and 0.15 M NaCl, pH 8.0. Wild type P-selectin and mutants thereof were first mixed with HRP-conjugated goat anti-human IgG (Fisher Scientific), serially diluted and then incubated for 30 minutes at 37° C. in buffer containing 20 mM Hepes, 0.15 M NaCl, 1% BSA and 0.8 mM CaCl2, pH 8.0 prior to addition to the BSA blocked plates. Following the 30 minute preincubation, the fusion protein-HRP conjugate immunocomplexes were incubated on the blocked antigen coated plates for 45 minutes at 37° C. in the presence or absence of the test compounds and then washed to remove any unbound proteins. Bound complexes were detected by addition of substrate buffer (95 mM NaOAc.3H2 O, 5 mM citric acid monohydrate, 1.4 mM urea/H2O2) containing 3, 3', 5, 5' Tetramethylbenzidine (SIGMA). Reactions were stopped by the addition of 3N sulfuric acid and the absorbance read on an ELISA reader at dual wavelengths 450 and 630 nm. The efficacy of these compounds was compared to that of sulfatide (positive control) or to lysosulfatide (negative control). The data is obtained as percent inhibition of specific binding [formula] and a plot of dose vs. percent inhibition of Rg binding is generated in which IC50 (μM) is calculated and reported as cell free data in Table 1.
On the technique in general: In an ELISA, binding on a coated surface is turned into a signal by an enzyme label.

Assay [4] deals with T1, P-selectin. As to the kind of experiment: HL-60 Cell Binding to P-selectin Rg. Type of assay: cell-based. Conditions: HL-60 cells binding to P-selectin Rg coated wells. The method, then: 2. HL-60 Cell Binding to P- and E-Selectin RG
Receptor globulin (Rg) Construction
The chimeric P-and E-selectin receptor globulin (Rg) consists of the human lectin domain, the EGF domain, and two complement repeats of the human selectins fused to the hinge, CH1 and CH2 domains of human IgG1. These proteins were prepared as described by Aruffo, et al., Cell (1991) 67: 35-44; Walz, et al., Science (1990) 250, 1132-1135.
Cell binding assay for Rg
The HL-60 cell line, obtained from the American Type Culture Collection, ATCC No. CCL240, was employed to investigate P-selectin Rg binding. Assays were done in 96-well tissue culture dishes. The wells were first coated with 0.5 ug goat anti-human Fc antiserum overnight, and nonspecific binding sites were blocked by incubation of the wells with 1% nonfat dry milk in phosphate buffered saline (PBS containing 0.9 mM CaCl2 and 0.8 mM MgSO4) for 30 minutes. The Rg was then bound to the anti Fc-coated wells by incubating 50 ng in 50 ul of PBS for two hours. Cells, washed twice and resuspended in PBS to remove traces of medium components, were labeled with 10 uM calcein acetoxy methyl ester for 30 minutes at 3×10^7 cells per ml at room temperature. Serum-containing medium (RPMI with 20% fetal calf serum) was added, and the cells washed, followed by resuspension in PBS and a further spin. The labeled cells, resuspended in PBS, were added to twice washed Rg-containing wells at 200,000 per well. Following a 30 minute incubation with slow shaking, the wells were aspirated and washed three times with PBS to remove unbound cells. To certain wells were added known numbers of cells for determination of a standard curve of fluorescent units per cell. The fluorescence on the plate was quantitated using a fluorescent plate reader. Following subtraction of a blank representing the binding of cells to non-Rg containing wells (<5000 cells), the specific binding to P- or E- selectin was determined.
Inhibitors of cell binding
Test compounds were prepared by dissolution to a final concentration of 20 mg/ml in dimethyl sulfoxide (DMSO), diluted in PBS to 2 mg/ml, and briefly sonicated prior to use. The Rg coated wells were preincubated at room temperature for 15 minutes with the inhibitor, and 200,000 cells were added to yield the final indicated inhibitor concentration in 160 ul of PBS. The data is obtained as percent inhibition of specific binding: [formula] and a plot of dose vs. percent inhibition of Rg binding is generated in which IC50 (μM) is calculated and reported in Table 1.

The test system of assay [5] is P-selectin. Conditions: cells grown in the presence of sodium selenate; cited from earlier work.

Consider dextran sulfate, for which, in the assay on P-selectin [1], the “inhibition of P-selectin mediated adhesion (in words)” value is recorded as “inhibit P-selectin mediated adhesion”.

For the compound fucoidan, the “inhibition of P-selectin mediated adhesion (in words)” value with P-selectin [1] is “inhibit P-selectin mediated adhesion”.

For sialyl-Le^x, in the assay on P-selectin [2], the “P-selectin binding (in words)” value is reported as “has been shown to bind”.

For `CCCCCCCCCCCCC/C=C/[C@@H](OC(=O)c1ccccc1)[C@H](CO[C@@H]1O[C@H](COS(=O)(=O)O)[C@H](OC(C)=O)[C@H](OS(=O)(=O)O)[C@H]1OC(=O)c1ccccc1)NC(=O)CCCCCCCCCCCCCCC` [Example 8, (2S,3R,4E)-3-Benzoyloxy-2-hexadecanoylamino-1-[2-O-benzoyl-4-O-acetyl-3,6-di-O-(sodiumoxysulfonyl)-β-D-galactopyranosyloxy]-4-octadecene], the IC50 worked out at 1.3 µM on P-selectin [3] and 15 µM on P-selectin [4].

On to `CCCCCCCCCCCCCCCCCCCCCCCC(=O)N[C@@H](CO[C@@H]1O[C@H](COS(=O)(=O)O)[C@H](OS(=O)(=O)O)[C@H](OC(=O)c2ccccc2)[C@H]1OC(=O)c1ccccc1)[C@@H](CCCCCCCCCCCCCCC)OC(=O)c1ccccc1` [Example 19, (2S,3R)-3-Benzoyloxy-1-[2,3-di-O-benzoyl-4,6-di-O-(sodiumoxysulfonyl)-β-D-galactopyranosyl-oxy]-2-tetracosanoylaminooctadecane], for which the values for the IC50 on P-selectin [3] and on P-selectin [4] were 0.6 to 4 µM and 45 µM, respectively.

For heparin, the “inhibition of P-selectin mediated adhesion (in words)” value in the assay on P-selectin [1] is on record as “inhibit P-selectin mediated adhesion”.

For the compound `O=[Se](=O)(O)O` [sodium selenate], the “inhibition of P-selectin binding to myeloid cell lines (in words)” value in the assay with P-selectin [5] is recorded as “can be inhibited”.
